Values quoted from earlier work, collected in patent publication US8916612B2, “Agmatine containing dietary supplements, nutraceuticals, and foods” (priority 2008, dated 2014).

System: mice, rats, dogs, calves and monkeys
Conditions: variable dose ranges and regimens; cited from earlier work

N=C(N)NCCCCN [agmatine]
Toxic effects during or after oral intake: No toxic effects
